The record followed here is patent US6878546B2, “Product and method for swelling a cell nucleus without DNA replication” (Brandeis University, priority 1993, dated 2005).

Assay [1] has as its system Xenopus erythrocyte nuclei. Description: Induction optimization: P^32-dCTP incorporation into DNA of pretreated nuclei in activating egg extract, cycloheximide added at different times. It counts as biochemical. The settings on record: total 60 minutes at 25° C. As for the experimental part:
Induction optimization was carried for Xenopus as describe below (see also Example 2, infra, for further optimization experiments). Xenopus erythrocyte nuclei were isolated and pretreated with lysolecithin and trypsin as described in Example 2 (described below). An activating egg extract was prepared from hardened eggs which were induced for 10 minutes as described above. Both the activating egg extract and the pretreated nuclei were kept on ice (about 4° C.). The activating egg extract was supplemented with 1 mM ATP (not used in the other examples described herein), 10 μg/ml creatine phosphokinase, 10 mM creatine phosphate, 10 μCi P^32-dCTP and combined with pretreated nuclei (about 200 nuclei/μl). Individual aliquots containing activated nuclei were shifted from 4° C. to 25° C. […] After 60 minutes, P^32-dCTP incorporation into newly synthesized DNA was determined.

Assay [2] concerns erythrocyte nuclei. Description: Supplements to CSF extract: chromatin assembly and later DNA synthesis in activating egg extract. It counts as biochemical, Xenopus. An excerpt: After further pretreatment in CSF extract, the nuclei may be activated by adding 9 volumes of “prepared activating egg extract.” DNA replication, measured by incorporation of labelled nucleotides into DNA strands, may be used to determine the extent to which prior treatment in CSF extract enhances nuclear activation in activating extract. Labelled nucleotides useful in measuring nuclear DNA replication include microcurie amounts of P^32-dCTP for radioactive measurement of newly synthesized DNA, 16-50 μM biotinylated-dUTP or BrdUTP for fluorescent measurement of newly synthesized DNA, and 250 μM BrdUTP for density labelling of newly synthesized DNA.
Several supplements to CSF extract, in the proper concentration, increased the ability of CSF extract to enhance activation activity without resulting in premature DNA synthesis activity. Useful supplements include β-glycerol-PO4, Ca^2+, and protein kinase inhibitors. The addition of β-glycerol-PO4 increased the rate at which negatively supercoiled DNA relaxed in CSF extract and was subsequently assembled into chromatin. […] Beta-glycerol-PO4 is an inhibitor of phosphatase activity and may act by increasing the level of the phosphorylated functionally-active form of topoisomerase II in the CSF extract. […]

The test system of assay [3] is Xenopus red blood cells nuclei. The settings on record: for Cpm Incorporated After X Minutes: 23° C. The protocol: The affect of cAMP on DNA replication in activated Xenopus red blood cells was determined.
Cyclic-AMP was then added to separate aliquots to yield final concentrations of 0.0 μM, 0.1 μM, 1.0 μM, or 10 μM.
Each aliquot was warmed to 23° C. and sampled over time to determine P^32-dCTP incorporation into replicated DNA. At each time point, a 7 μl aliquot was taken, frozen on dry ice, and later thawed and digested by the addition of 10 μl replication sample buffer (80 mM Tris (pH 8.0), 8 mM EGTA, 0.13% phosphoric acid, 10% Ficoll, 5% SDS, 0.2% bromphenol blue) containing proteinase K (1.0 mg/ml) for 2 hours at room temperature. Incorporated radioactivity was analyzed by electrophoresis on a 0.8% agarose gel (50V, 20 hours) followed by vacuum drying the gel and counting on a Betascope.

The test system of assay [4] is Xenopus erythrocyte nuclei. Description: DNA replication in activating egg extract after further pretreatment in CSF extract supplemented with DMAP. The settings on record: 5 mM DMAP in CSF extract; FIG. 2. It counts as biochemical. The protocol:
Addition of 6-dimethylaminopurine (DMAP) to CSF extracts was used to further pretreat Xenopus erythrocyte nuclei and stimulate subsequent DNA replication in activating egg extract. DMAP can be used to inhibit nucleic acid synthesis and protein kinase activity. Xenopus erythrocyte nuclei were isolated and pretreated as described in Example 1 above, and incubated in thawed “prepared CSF extract” supplemented with 80 mM β-glycerol-PO4, and 5 μg/ml nocodazole at a concentration of 2000 nuclei/μl. Further pretreatment was carried out by incubation for 30 minutes at 4° C., then 30 minutes at 25° C., then 60 minutes at 4° C. Half the samples were supplemented with 5 mM DMAP before addition of the nuclei. After the two hours of incubation, each sample was diluted with 9 volumes of activating egg extract, supplemented with 5 μg/ml nocodazole (this dose of nocodazole slows down the rate of replication) and approximately 160 μCi/ml P^32-dCTP. Aliquots were removed over time to measure DNA replication.

Assay [5] relates to human fetal liver erythroid cell nuclei. Description: Activation of human fetal liver erythroid cell nuclei in activating extract (swelling, replication, chromosome formation). It counts as biochemical. The conditions noted are these: aphidicolin added at T=0. The protocol: Step 5: Activation of erythroid cell nuclei. Nuclear swelling, envelope formation, and replication were carried out on human fetal liver erythroid cell nuclei prepared using the optimal conditions described in steps 1-4 above. […] The resulting nuclei concentration was about 200/μl.
The following measurement were taken: DNA synthesis was monitored using extract containing P^32dCTP by gel electrophoresis; histone H1 kinase was measured; and samples, labelled with biotinylated-dUTP were taken for cytological analysis of DNA replication and nuclear envelope breakdown.
Experiments were also carried out to determine whether nuclear swelling was dependent on DNA synthesis, by activating nucleic in the presence of aphidicolin (added at T=0).
Swelled and replicated nuclei were treated with Cyclin-Δ90 or CSF extract. Cyclin-Δ90 was added to activating extract to obtain prophase mitotic chromosomes, while CSF extract was added to obtain metaphase chromosomes and nuclear envelope breakdown.

The test system of assay [6] is Xenopus red blood cells nuclei. Briefly: DNA replication in activated nuclei in caffeine supplemented activating egg extract. It counts as biochemical. The conditions noted are these: caffeine at 1.0 mM in the presence of 0.3 μM cAMP; compared with 0.2 mM and 5.0 mM; FIG. 1. As for the experimental part:
The experimental conditions used were as described in Example 1 with the following changes: the concentration of cAMP was set at 0.3 μM and caffeine was added to the activating egg extract to a concentration of either 0.2 mM, 1.0 mM, or 5.0 mM.

Assay [7] in a line: Rate of DNA replication in activating egg extract with nocodazole. The format is biochemical. The conditions noted are these: 5 μg/ml nocodazole added to activating egg extract.

Read-outs that look alike come from different tables or passages of the source.

Take `C[C@@H]1C[C@@H]([C@H](O)CC2CC(=O)NC(=O)C2)C(=O)[C@@H](C)C1` [CHM, Cycloheximide]: the “Cpm Incorporated into DNA” value in assay [1] (CHM 100 μg/ml added at 0 minutes, extract from eggs induced 10 minutes) is given as 2,894 Cpm; in assay [1] (CHM 100 μg/ml added at 5 minutes), 4,208 Cpm; in assay [1] (CHM 100 μg/ml added at 15 minutes), 4,937 Cpm; in assay [1] (CHM 100 μg/ml added at 30 minutes) it was 3,775 Cpm; in assay [1] (CHM 100 μg/ml added at 45 minutes) it was 2,314 Cpm.

Consider `[Ca+2].[Cl-].[Cl-]` [Ca^2+, CaCl2], for which the “amount and rate of DNA synthesis in erythrocyte nuclei after addition of activating egg extract” value in assay [2] (100 μM Ca^2+ added to CSF extract) was “increased both the amount and the rate of DNA synthesis”.

Turning to `Nc1ncnc2c1ncn2[C@@H]1O[C@@H]2COP(=O)(O)O[C@H]2[C@H]1O` [Cyclic AMP, Cyclic-AMP], the “DNA replication in activated nuclei compared to without any cAMP” value in assay [3] (0.1 μM cAMP) is listed as “increased”; in assay [3] (1.0 μM cAMP, compared with 0.1 μM), “greater increase”; in assay [3] (10 μM cAMP), “inhibits DNA replication”. For the same molecule, the “Cpm Incorporated After X Minutes” value in assay [3] (0.1 Micromoles of Cyclic AMP Added, after 0 minutes) is 14 Cpm; in assay [3] (0.1 Micromoles of Cyclic AMP Added, after 45 minutes) it was 51 Cpm; in assay [3] (0.1 Micromoles of Cyclic AMP Added, after 90 minutes) it was 68 Cpm; in assay [3] (0.1 Micromoles of Cyclic AMP Added, after 135 minutes), 290 Cpm; in assay [3] (0.1 Micromoles of Cyclic AMP Added, after 180 minutes) it was 1,141 Cpm; in assay [3] (0.1 Micromoles of Cyclic AMP Added, after 240 minutes), 2,945 Cpm. Further, the “Cpm Incorporated After X Minutes” value in assay [3] (0.1 Micromoles of Cyclic AMP Added, after 300 minutes) is 2,692 Cpm; in assay [3] (1.0 Micromoles of Cyclic AMP Added, after 0 minutes), 10 Cpm; in assay [3] (1.0 Micromoles of Cyclic AMP Added, after 45 minutes), 14 Cpm; in assay [3] (1.0 Micromoles of Cyclic AMP Added, after 90 minutes) it was 56 Cpm; in assay [3] (1.0 Micromoles of Cyclic AMP Added, after 135 minutes), 564 Cpm; in assay [3] (1.0 Micromoles of Cyclic AMP Added, after 180 minutes) it was 2,316 Cpm. Besides, the “Cpm Incorporated After X Minutes” value in assay [3] (1.0 Micromoles of Cyclic AMP Added, after 240 minutes) is on record as 4,484 Cpm; in assay [3] (1.0 Micromoles of Cyclic AMP Added, after 300 minutes), 5,504 Cpm; in assay [3] (10 Micromoles of Cyclic AMP Added, after 0 minutes) it was 43 Cpm; in assay [3] (10 Micromoles of Cyclic AMP Added, after 45 minutes), 34 Cpm; in assay [3] (10 Micromoles of Cyclic AMP Added, after 90 minutes), 31 Cpm; in assay [3] (10 Micromoles of Cyclic AMP Added, after 135 minutes), 35 Cpm. Further, the “Cpm Incorporated After X Minutes” value amounted to 85 Cpm in assay [3] (10 Micromoles of Cyclic AMP Added, after 180 minutes); 168 Cpm in assay [3] (10 Micromoles of Cyclic AMP Added, after 240 minutes); 571 Cpm in assay [3] (10 Micromoles of Cyclic AMP Added, after 300 minutes).

On to `CN(C)c1ncnc2nc[nH]c12` [DMAP, 6-dimethylaminopurine], for which, in assay [4], the “initial rate and total amount of DNA synthesis” value is given as “increased”; the “lag time before the onset of replication” value is reported as “decreased”.

Consider `C[C@@]1(CO)[C@H](O)CC[C@@]2(C)[C@H]1CC[C@H]1C[C@@H]3C[C@@]12CC[C@]3(O)CO` [aphidicolin], for which, in assay [5], the “replication (biotin labelling)” value was “no replication took place”. The nuclear swelling result in assay [5] (absence of replication) was “many nuclei swelled significantly”.

On to `Cn1c(=O)c2c(ncn2C)n(C)c1=O` [caffeine], for which the “initial rate and extent of DNA replication in activated nuclei” value in assay [6] was “highest initial rate and extent of DNA replication”.

Turning to `COC(=O)Nc1nc2ccc(C(=O)c3cccs3)cc2[nH]1` [nocodazole], the “rate of DNA replication” value in assay [7] was “decreases”.

On to `O=P(O)(O)OC(CO)CO` [β-glycerol-PO4], for which the “chromatin assembly in CSF extract” value in assay [2] (about 80 mM β-glycerol-PO4) was “aid in chromatin assembly without causing DNA synthesis”.
